Data as given in patent US11214803B2, “Modulators of YAP1 expression” (Ionis Pharmaceuticals, Inc., priority 2019, dated 2022).
Marks after values point to notes of the source that are not given here. Strand notation (5' to 3'): a small letter for the sugar, then the base; units joined by * are phosphorothioate-linked, units joined directly phosphodiester-linked; [ ] holds rarer units or linkages, { } end groups; capitals alone tell only the bases. k = constrained ethyl (cEt); [5mC] = 5-methylcytosine; d = 2'-deoxy (DNA)

Test system: Yap1 mRNA
Test: Antisense inhibition of human Yap1 in A-431 cells by cEt gapmers, single dose (Example 2, RTS4814)
Type: cell-based
Conditions: A-431 cells, 5,000 cells per well, free uptake, 2,000 nM modified oligonucleotide, approx. 48 hours, RTS4814, normalized to RIBOGREEN; Table 4; asterisk (*) = targets amplicon region of primer probe set
Method in brief: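 Read-out is Yap1 mRNA as percent of untreated cells, by real-time RT-PCR (probe set RTS4814) normalized to total RNA via RIBOGREEN. Cells were A-431 dosed with 2,000 nM gapmer without transfection for approximately 48 hours.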

Substance	YAP1 (% UTC)
716397 (kG*kG*k[5mC]*d[5mC]*dT*d[5mC]*dA*d[5mC]*d[5mC]*dT*dG*d[5mC]*d[5mC]*kG*kA*kA; antisense) [Compound 716397]	88
716490 (kA*k[5mC]*kA*dA*d[5mC]*d[5mC]*dA*dA*d[5mC]*dT*dA*dT*dT*kA*k[5mC]*kT; antisense) [Compound 716490]	63
716559 (k[5mC]*k[5mC]*kT*dA*dA*d[5mC]*dA*dT*dA*dT*dG*dA*dG*k[5mC]*kA*kT; antisense) [Compound 716559]	62
716466 (kG*kT*kG*dG*dA*dG*d[5mC]*dA*d[5mC]*dT*d[5mC]*d[5mC]*d[5mC]*k[5mC]*kT*kA; antisense) [Compound 716466]	58

Same assay, conditions: Table 5; A-431 cells, 5,000 cells per well, free uptake, 2,000 nM modified oligonucleotide, approx. 48 hours; RTS4814; normalized to RIBOGREEN; Yap1 mRNA relative to untreated control cells

Substance	YAP1 (% UTC)
716374 (kG*kG*kT*d[5mC]*dA*dG*dT*dG*dT*d[5mC]*d[5mC]*d[5mC]*dA*kG*kG*kA; antisense) [Compound 716374]	54
716491 (k[5mC]*kT*kG*dG*dT*dG*d[5mC]*d[5mC]*dA*d[5mC]*dT*dT*dT*kA*kA*kT; antisense) [Compound 716491]	54
716512 (antisense kA*k[5mC]*kT*d[5mC]*d[5mC]*dT*dT*d[5mC]*d[5mC]*dA*dA*dG*dT*kA*kG*k[5mC]) [Compound 716512]	99
716563 (kT*kG*kA*dA*dG*d[5mC]*dA*dA*dG*dT*dT*d[5mC]*dT*k[5mC]*kA*kA; antisense) [Compound 716563]	126

Same assay, conditions: Table 6; A-431 cells, 5,000 cells per well, free uptake, 2,000 nM modified oligonucleotide, approx. 48 hours; RTS4814; normalized to RIBOGREEN; Yap1 mRNA relative to untreated control cells

Substance	YAP1 (% UTC)
716426 (kT*kT*kT*dG*dA*dT*dT*d[5mC]*dT*dT*dT*dA*dG*kA*kG*k[5mC]; antisense) [Compound 716426]	45
716411 (kT*k[5mC]*kT*dG*d[5mC]*dT*dG*dT*dG*dA*dG*dG*dG*k[5mC]*kA*kG; antisense) [Compound 716411]	102
716465 (kG*k[5mC]*kT*d[5mC]*dT*dT*dT*d[5mC]*dT*dA*dG*dA*dA*k[5mC]*kA*k[5mC]; antisense) [Compound 716465]	82

Same assay, conditions: Table 18; A-431 cells, 5,000 cells per well, free uptake, 2,000 nM modified oligonucleotide, approx. 48 hours; RTS4814; normalized to RIBOGREEN; Yap1 mRNA as percent of untreated control

Substance	YAP1 (% UTC)
1075716 (kG*k[5mC]*k[5mC]*dG*dA*dA*dA*dT*dA*d[5mC]*dT*d[5mC]*dT*k[5mC]*kA*kT; antisense) [Compound 1075716]	19
1076228 (kA*kT*kT*dA*dA*d[5mC]*d[5mC]*dT*d[5mC]*dA*dG*dT*dG*kA*kG*k[5mC]; antisense) [Compound 1076228]	69
1075108 (antisense k[5mC]*kT*kA*dA*dA*dA*dA*d[5mC]*dA*dT*dT*dG*dT*kG*kG*k[5mC]) [Compound 1075108]	67
1075876 (kG*kT*kA*dT*dT*dT*dA*dT*dG*dA*dT*dG*dA*kT*kT*k[5mC]; antisense) [Compound 1075876]	6
1075076 (antisense k[5mC]*kA*kT*dA*dA*d[5mC]*dA*dT*d[5mC]*dA*dT*dG*dG*kA*kA*kG) [Compound 1075076]	25

Same assay, conditions: Table 19; A-431 cells, 5,000 cells per well, free uptake, 2,000 nM modified oligonucleotide, approx. 48 hours; RTS4814; normalized to RIBOGREEN; Yap1 mRNA as percent of untreated control

Substance	YAP1 (% UTC)
1076165 (k[5mC]*k[5mC]*k[5mC]*d[5mC]*dA*dA*dG*dG*dA*d[5mC]*dT*dT*dG*k[5mC]*k[5mC]*kA; antisense) [Compound 1076165]	79
1075397 (antisense k[5mC]*kA*kT*dT*dA*dT*d[5mC]*dG*d[5mC]*dA*d[5mC]*dA*dT*kA*k[5mC]*kA) [Compound 1075397]	79

Same assay, conditions: Table 20; Yap1 mRNA, percent of untreated control; 3-10-3 cEt gapmers targeting SEQ ID NO.: 1 and 2

Substance	YAP1 (% UTC)
1075942 (kT*kG*kA*d[5mC]*dT*dA*dT*dA*d[5mC]*dA*dT*dG*dG*kT*kG*kA; antisense) [Compound 1075942]	46

Same assay, conditions: Table 21; Yap1 mRNA, percent of untreated control; 3-10-3 cEt gapmers targeting SEQ ID NO.: 1 and 2

Substance	YAP1 (% UTC)
1075079 (antisense k[5mC]*kA*k[5mC]*d[5mC]*dA*dA*dA*dA*dG*d[5mC]*dT*dT*dA*kG*kT*kT) [Compound 1075079]	40

Same assay, conditions: Table 22; Yap1 mRNA as percent of untreated control; 3-10-3 cEt gapmers; single dose

Substance	YAP1 (% UTC)
1076520 (antisense kA*kA*kT*dT*dA*dT*dA*dT*dG*d[5mC]*dA*dG*d[5mC]*kA*kG*k[5mC]) [Compound 1076520]	21

Same assay, conditions: Table 23; Yap1 mRNA as percent of untreated control; 3-10-3 cEt gapmers; single dose

Substance	YAP1 (% UTC)
1075625 (kA*kA*kT*d[5mC]*dT*dA*dT*dA*dA*d[5mC]*d[5mC]*d[5mC]*dT*kT*kA*kT; antisense) [Compound 1075625]	49 % UTC
1075145 (antisense kT*k[5mC]*k[5mC]*d[5mC]*dA*dA*dA*dA*dG*dG*dA*dG*dT*kA*kG*k[5mC]) [Compound 1075145]	58 % UTC
1074441 (k[5mC]*kA*kA*dA*d[5mC]*dT*dA*dA*dA*dT*dG*d[5mC]*dT*kG*kT*kG; antisense) [Compound 1074441]	5* % UTC

Same assay, conditions: Table 24; Yap1 mRNA as percent of untreated control; 3-10-3 cEt gapmers targeting SEQ ID NO.: 1, and 2

Substance	YAP1 (% UTC)
1074410 (antisense kT*kA*kG*dA*dG*dG*dA*dT*dT*dA*dA*dA*dG*kT*kA*kT) [Compound 1074410]	32
1074666 (antisense k[5mC]*kA*kT*dA*dT*dA*d[5mC]*d[5mC]*d[5mC]*dA*dA*dT*dT*kT*kT*kG) [Compound 1074666]	16
1074986 (antisense k[5mC]*kT*kA*d[5mC]*dT*dG*dT*dA*dA*dT*d[5mC]*dA*d[5mC]*k[5mC]*kT*kT) [Compound 1074986]	78
1074218 (antisense kA*kG*kG*dG*d[5mC]*dT*d[5mC]*d[5mC]*dT*dG*d[5mC]*dA*dG*kT*kG*k[5mC]) [Compound 1074218]	70

Same assay, conditions: Table 25; Yap1 mRNA as percent of untreated control; 3-10-3 cEt gapmers targeting SEQ ID NO.: 1, and 2

Substance	YAP1 (% UTC)
1074411 (antisense kT*kG*kT*dG*dA*dA*dA*dG*dA*dG*dG*dT*d[5mC]*kA*kG*k[5mC]) [Compound 1074411]	3
1075883 (kA*k[5mC]*kT*dA*dA*dA*dA*d[5mC]*d[5mC]*dA*dT*dT*dT*kG*k[5mC]*k[5mC]; antisense) [Compound 1075883]	20
1075851 (kG*k[5mC]*k[5mC]*dG*dA*dA*dT*dA*dT*dG*dG*dG*dA*kA*kA*kA; antisense) [Compound 1075851]	70

Same assay, conditions: Table 32; Yap1 mRNA, percent of untreated control; 3-10-3 cEt gapmers targeting SEQ ID NO.: 1, and 2

Substance	YAP1 (% UTC)
1075858 (antisense k[5mC]*k[5mC]*kT*dT*dA*dA*dA*d[5mC]*dA*dA*dT*d[5mC]*d[5mC]*k[5mC]*kT*kA) [compound 1075858]	23
1075986 (kG*kA*kA*dT*dA*dT*d[5mC]*dG*dA*dA*dA*dA*dG*k[5mC]*kA*kA; antisense) [compound 1075986]	26
1074738 (k[5mC]*kT*kT*d[5mC]*dA*dG*dG*dT*d[5mC]*dA*dG*dT*dA*k[5mC]*kA*kG; antisense) [compound 1074738]	12
1075794 (k[5mC]*kA*kT*dA*dA*dT*dG*dA*dA*dT*dG*dT*dG*kG*kG*kT; antisense) [compound 1075794]	38
1074866 (kA*kA*k[5mC]*dA*dT*dA*dT*dG*dA*dG*d[5mC]*dA*dT*kG*k[5mC]*kT; antisense) [compound 1074866]	30

Same assay, conditions: Table 33; Yap1 mRNA, percent of untreated control; 3-10-3 cEt gapmers targeting SEQ ID NO.: 1, and 2

Substance	YAP1 (% UTC)
1074547 (kG*kA*kG*d[5mC]*dA*d[5mC]*dT*d[5mC]*d[5mC]*d[5mC]*d[5mC]*dT*dA*kG*kG*k[5mC]; antisense) [compound 1074547]	71
1076179 (kA*kA*kT*dT*dA*dG*d[5mC]*d[5mC]*dA*dA*d[5mC]*d[5mC]*dA*k[5mC]*k[5mC]*kT; antisense) [compound 1076179]	38

Same assay, conditions: Yap1 mRNA as percent of untreated control; A-431 cells; 3-10-3 cEt gapmers targeting SEQ ID NO.: 1, and 2; Table 30

Substance	YAP1 (% UTC)
1075184 (k[5mC]*kA*kA*dG*dA*dA*d[5mC]*dA*d[5mC]*dT*dG*dG*dT*kA*kT*kT; antisense) [compound 1075184]	67
1075056 (antisense k[5mC]*kT*kT*dT*dA*dT*dT*dA*dT*d[5mC]*dT*d[5mC]*dA*kA*k[5mC]*k[5mC]) [compound 1075056]	21

Same assay, conditions: Yap1 mRNA as percent of untreated control; A-431 cells; 3-10-3 cEt gapmers targeting SEQ ID NO.: 1, and 2; Table 31

Substance	YAP1 (% UTC)
1075889 (antisense kA*kT*kT*dA*dA*dA*dA*dG*dT*dA*dG*dG*d[5mC]*k[5mC]*k[5mC]*kT) [compound 1075889]	71
1074865 (kA*k[5mC]*kA*dT*dA*dT*dG*dA*dG*d[5mC]*dA*dT*dG*k[5mC]*kT*k[5mC]; antisense) [compound 1074865]	46
1076433 (kA*kT*kT*dA*dA*d[5mC]*dT*dT*dT*d[5mC]*dG*d[5mC]*dT*kA*kA*kA; antisense) [compound 1076433]	69
1075217 (kT*kT*kA*dT*dT*dT*dT*dA*d[5mC]*dA*d[5mC]*dG*dA*kA*k[5mC]*kT; antisense) [compound 1075217]	71
1075505 (kG*k[5mC]*kT*dA*dA*dA*dT*dT*dA*d[5mC]*dA*dG*dA*kG*kG*kT; antisense) [compound 1075505]	18
